Values of other authors, collected in US20170326066A1, “METHOD OF TREATING HYPERTENSION” (Ezra Pharma LLC, priority 2016, published 2017).

What does the source list for `CCCCC(=O)N(Cc1ccc(-c2ccccc2-c2nnn[nH]2)cc1)[C@H](C(=O)O)C(C)C` [valsartan]?
peak plasma concentration reduced to (by 12 hours): approximately 65%; time by which plasma levels reach very low level (following Cmax): 10 to 12 h; half-life (in vivo): about 6 hours; Tmax (oral administration): 2 to 4 h; absolute bioavailability (oral administration): about 25%; absolute bioavailability (range) (oral administration): 10-35%
